Experiment [1] is filed under the species Rattus norvegicus. As to the kind of experiment: Inhibition of carnitine-dependent oxidation of [1-14C]palmitate to 14CO2 in rat liver mitochondria was measured in vitro at 2*10e-3 mM concentration. The class given is functional.
Experiment [2] is filed under the species Rattus norvegicus. As to the kind of experiment: Inhibition of carnitine-dependent oxidation of [1-14C]palmitate to 14CO2 in rat liver mitochondria was measured in vitro at 2*10e-2 mM concentration. Format: functional.
For experiment [3], the species on record is Rattus norvegicus. The experiment in a line: Inhibition of carnitine-dependent oxidation of [1-14C]palmitate to 14CO2 in rat liver mitochondria was measured in vitro at 2 mM concentration.
The species named for experiment [4] is Rattus norvegicus. As to the kind of experiment: Inhibition of carnitine-dependent oxidation of [1-14C]palmitate to 14CO2 in rat liver mitochondria was measured in vitro at 2*10e-1 mM concentration. Format: functional.

These results are taken from ChEMBL document CHEMBL1123813, “Chemistry and inhibitory activity of long chain fatty acid oxidation of emeriamine and its analogues” (J Med Chem, 1987).

Take `C[N+](C)(C)CC(N)CC(N)=O` (stereo not drawn): the inhibition in the experiment filed under Rattus norvegicus [1] was determined as 10%; in the experiment listed under Rattus norvegicus [2], 27%.
On to `CCCCCCCCCCCCCCCC(=O)NC(CC(=O)[O-])C[N+](C)(C)C` (stereo not drawn), for which the inhibition in the experiment filed under Rattus norvegicus [1] and in the experiment filed under Rattus norvegicus [2] was 100% in each case.
The compound `CCCC(=O)NC(CC(=O)[O-])C[N+](C)(C)C` (stereo not drawn) registered an inhibition in the experiment listed under Rattus norvegicus [3] of 50%.
As for `CCCCCCCCCCCCCC(=O)NC(CC(=O)[O-])C[N+](C)(C)C` (stereo not drawn), the inhibition in the experiment filed under Rattus norvegicus [1] and in the experiment filed under Rattus norvegicus [2] was 100% each time.
Take `Cc1ccc(S(=O)(=O)NC(CC(=O)[O-])C[N+](C)(C)C)cc1` (stereo not drawn): the inhibition in the experiment filed under Rattus norvegicus [4] came to 84%; in the experiment filed under Rattus norvegicus [3] it was 100%.
`C[N+](C)(C)C[C@H](N)CC(=O)[O-]`: the inhibition in the experiment filed under Rattus norvegicus [1] was found to be 59%; in the experiment listed under Rattus norvegicus [2], 90%.
Regarding `COC(=O)CC(N)C[N+](C)(C)C` (stereo not drawn), the inhibition came to 26% in the experiment filed under Rattus norvegicus [1] and 73% in the experiment filed under Rattus norvegicus [2].
Regarding `C[N+](C)(C)CC(CC(=O)[O-])NC(N)=O` (stereo not drawn), the inhibition in the experiment listed under Rattus norvegicus [4] worked out at 84%; in the experiment filed under Rattus norvegicus [3] it was 72%.
With `CCOC(=O)CC(N)C[N+](C)(C)C` (stereo not drawn), the inhibition amounted to 37% in the experiment listed under Rattus norvegicus [1] and 85% in the experiment listed under Rattus norvegicus [2].
Regarding `CNC(CC(=O)[O-])C[N+](C)(C)C` (stereo not drawn), the inhibition in the experiment filed under Rattus norvegicus [4] was 89%; in the experiment listed under Rattus norvegicus [3] it was 100%.
For the compound `C[N+](C)(C)CC(CC(=O)[O-])NC(=O)OCc1ccccc1` (stereo not drawn), the inhibition in the experiment listed under Rattus norvegicus [4] turned out to be 85%; in the experiment listed under Rattus norvegicus [3], 98%.
For the compound `CCC(=O)NC(CC(=O)[O-])C[N+](C)(C)C` (stereo not drawn), the inhibition in the experiment listed under Rattus norvegicus [3] was found to be 44%.
With `CC(=O)NC(CC(=O)[O-])C[N+](C)(C)C` (stereo not drawn), the inhibition in the experiment listed under Rattus norvegicus [4] was 6%; in the experiment listed under Rattus norvegicus [3], 38%.
The like results for `C[N+](C)(C)C[C@@H](CC(=O)[O-])NC=O` were, in that order, 53% and 84%.
Take `COC(=O)NC(CC(=O)[O-])C[N+](C)(C)C` (stereo not drawn): the inhibition in the experiment filed under Rattus norvegicus [4] and in the experiment filed under Rattus norvegicus [3] was 0% in each case.
